Experimental findings from patent publication US20040024024A1, “Aromatic sulfone hydroxamates and their use as protease inhibitors” (priority 2001, published 2004) are described below.

pIC50: −log10 of the molar value. Structures can show the parent of a compound that is named as a salt. Some results are limits rather than exact numbers.

The target of one test is T1, Human recombinant MMP-1 (Homo sapiens, UniProt P03956).
T1 construct: made in house; host or cells: MMP-1-transfected HT-1080 cells (spent media)
T1 sequence (P03956 100-469): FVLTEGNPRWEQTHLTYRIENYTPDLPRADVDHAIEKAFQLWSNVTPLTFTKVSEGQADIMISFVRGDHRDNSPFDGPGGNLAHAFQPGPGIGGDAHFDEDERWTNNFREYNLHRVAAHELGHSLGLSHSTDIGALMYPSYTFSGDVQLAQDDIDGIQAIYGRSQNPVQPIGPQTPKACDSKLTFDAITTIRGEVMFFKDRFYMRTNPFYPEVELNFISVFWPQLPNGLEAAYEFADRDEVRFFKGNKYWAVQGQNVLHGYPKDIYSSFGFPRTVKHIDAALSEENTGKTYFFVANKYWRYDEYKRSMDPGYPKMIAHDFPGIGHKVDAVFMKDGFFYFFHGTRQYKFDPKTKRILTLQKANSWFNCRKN
Description: In vitro MMP inhibition, IC50 determination (fluorogenic substrate I). As to conditions: substrate (I) 4 μM, room temperature; values not in parenthesis. The class given is biochemical. The procedure, abridged:
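Inhibitor dilutions were made in 100 mM Tris-HCl/100 mM NaCl/10 mM CaCl2 buffer, pH 7.5, and incubated at room temperature with activated proenzyme (from transfected HT-1080 media; APMA or trypsin) and 4 μM quenched methoxycoumarin peptide substrate. Loss of 415 nm fluorescence (328 nm excitation) against concentration gave IC50.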
With `O=C(NO)C1(S(=O)(=O)c2ccc(OCCCc3nc(-c4ccc(OC(F)(F)F)cc4)no3)cc2)CCOCC1` [Example 31, tetrahydro-N-hydroxy-4-[[4-[3-[3[4-(trifluoromethoxy)phenyl]-1,2,4-oxadiazol-5-yl]propoxy]phenyl]sulfonyl]-2H-pyran-4-carboxamide], the negative logarithm of the IC50 (pIC50) is under 5.00. Regarding `O=C(NO)C1(S(=O)(=O)c2ccc(OCCc3cccc(-c4ccccn4)c3)cc2)CCOCC1` [Example 40], the pIC50 was under 5.00.

In the case of `CCN1CCC(C(=O)NO)(S(=O)(=O)c2ccc(OCCCc3nc(-c4ccc(OC(F)(F)F)cc4)no3)cc2)CC1` [Example 41, 1-ethyl-N-hydroxy 4-{[4-(3-{3-[4-(trifluoromethoxy)phenyl]-1,2,4-oxadiazol-5-yl}propoxy)phenyl]sulfonyl}piperidine-4-carboxamide Hydrochloride], the pIC50 was under 5.00. Turning to `COCCN1CCC(C(=O)NO)(S(=O)(=O)c2ccc(OCCCc3nc(-c4ccc(OC(F)(F)F)cc4)no3)cc2)CC1` [Example 42], the negative-log IC50 (pIC50) is under 5.00.

Regarding `CCN1CCC(C(=O)NO)(S(=O)(=O)c2ccc(OCCCc3cccc(-c4ccccc4)c3)cc2)CC1` [Example 46], the pIC50 is under 5.00. Take `COCCN1CCC(C(=O)NO)(S(=O)(=O)c2ccc(OCCCn3nnc(-c4ccc(OC(F)(F)F)cc4)n3)cc2)CC1` [Example 48]: the pIC50 was under 5.00.

With `O=C(NO)C1(S(=O)(=O)c2ccc(OCCCn3nnc(-c4ccc(OC(F)(F)F)cc4)n3)cc2)CCN(C2CC2)CC1` [Example 49], the negative logarithm of the IC50 (pIC50) was under 5.00. Same read-out and setting: to `O=C(NO)C1(S(=O)(=O)c2ccc(OCCCc3nc(-c4ccc(OC(F)(F)F)cc4)no3)cc2)CCN(C2CC2)CC1` [Example 51, 1-cyclopropyl-N-hydroxy-4-{[4-(3-{3-[4-(trifluoromethoxy)phenyl]-1,2,4-oxadiazol-5-yl}propoxy)phenyl]sulfonyl}piperidine-4-carboxamide Hydrochloride] belongs under 5.00; to `O=C(NO)C1(S(=O)(=O)c2ccc(OCCCn3nnc(-c4ccc(OC(F)(F)F)cc4)n3)cc2)CCN(CC2CC2)CC1` [Example 53], under 5.00.

Staying with this test, now noted: value outside parentheses.
`O=C(NO)C1(S(=O)(=O)c2ccc(OCCCc3cncc(-c4ccc(F)cc4)c3)cc2)CCOCC1` [Example 523]: the pIC50 is 5.09.

Turning to `O=C(NO)C1(S(=O)(=O)c2ccc(OCCCc3cncc(-c4ccccc4)c3)cc2)CCOCC1` [Example 524], the negative logarithm of the IC50 (pIC50) was under 5.00.

`O=C(NO)C1(S(=O)(=O)c2ccc(OCCCc3cc(-c4ccc(F)cc4F)cs3)cc2)CCOCC1` [Example 587]: the pIC50 is under 5.00.

As to `CCN1CCC(C(=O)NO)(S(=O)(=O)c2ccc(OCCCSc3nc4ccccc4s3)cc2)CC1` [Example 591], the pIC50 is under 5.00. Take `O=C(NO)C1(S(=O)(=O)c2ccc(OCCCc3cccc(-c4cccs4)c3)cc2)CCOCC1` [Example 595]: the pIC50 was under 5.00. Turning to `O=C(Cc1csc2ccccc12)NCCOc1ccc(S(=O)(=O)C2(C(=O)NO)CCOCC2)cc1` [Example 596], the pIC50 was under 5.00. Turning to `O=C(NCCOc1ccc(S(=O)(=O)C2(C(=O)NO)CCOCC2)cc1)c1cc2ccccc2[nH]1` [Example 599], the pIC50 is under 5.00.

Turning to `O=C(NO)C1(S(=O)(=O)c2ccc(OCCCc3cc(-c4ccc(OC(F)(F)F)cc4)cs3)cc2)CCOCC1` [Example 608], the pIC50 was under 5.00. Consider `N#Cc1ccc(-c2cccc(CCCOc3ccc(S(=O)(=O)C4(C(=O)NO)CCOCC4)cc3)c2)cc1` [Example 624], for which the pIC50 is under 5.00. Regarding `O=C(NO)C1(S(=O)(=O)c2ccc(OCCCc3cccc(-c4ccc([N+](=O)[O-])cc4)c3)cc2)CCOCC1` [Example 626], the pIC50 is under 5.00.

With `O=C(NO)C1(S(=O)(=O)c2ccc(OCCCc3cccc(-c4ccc5c(c4)OCO5)c3)cc2)CCOCC1` [Example 628], the pIC50 is under 5.00.

Consider `O=C(NO)C1(S(=O)(=O)c2ccc(OCCCc3cccc(-c4ccc(F)cc4F)c3)cc2)CCOCC1` [Example 630], for which the pIC50 was under 5.00.

With `O=C(NO)C1(S(=O)(=O)c2ccc(OCCCc3cccc(-c4ccsc4)c3)cc2)CCOCC1` [Example 632], the pIC50 is under 5.00.

Regarding `O=C(NO)C1(S(=O)(=O)c2ccc(OCCCc3cccc(-c4ccoc4)c3)cc2)CCOCC1` [Example 637], the pIC50 was under 5.00.

Staying with this test, now noted: value outside parenthesis.
Turning to `CC(C)C(=O)c1cccc(CCCOc2ccc(S(=O)(=O)C3(C(=O)NO)CCOCC3)cc2)c1` [Example 95], the pIC50 was under 5.00.

With `O=C(NO)C1(S(=O)(=O)c2ccc(OCCCc3cccc(Cc4ccccc4)c3)cc2)CCOCC1` [Example 98], the pIC50 was under 5.00. For `O=C(NO)C1(S(=O)(=O)c2ccc(OCCc3cccc(-c4ccncc4)c3)cc2)CCOCC1` [Example 113], the pIC50 is under 5.00. Same read-out and setting: to `O=C(NO)C1(S(=O)(=O)c2ccc(OCCc3cccc(-c4ccccc4F)c3)cc2)CCOCC1` [Example 115] belongs under 5.00; to `O=C(NO)C1(S(=O)(=O)c2ccc(OCCc3cccc(-c4ccc(F)cc4)c3)cc2)CCOCC1` [Example 123], under 5.00. As to `O=C(NO)C1(S(=O)(=O)c2ccc(OCCc3cccc(-c4cccnc4)c3)cc2)CCOCC1` [Example 125], the negative logarithm of the IC50 (pIC50) is 5.53. Turning to `Cc1ccc(-c2cccc(CCOc3ccc(S(=O)(=O)C4(C(=O)NO)CCOCC4)cc3)c2)cc1` [Example 127], the pIC50 is under 5.00. As for `O=C(NO)C1(S(=O)(=O)c2ccc(OCCCc3cccc(-c4ccc(F)cc4)c3)cc2)CCN(C2CC2)CC1` [Example 139], the pIC50 is under 5.00. Still for that read-out and setting: to `COCCN1CCC(C(=O)NO)(S(=O)(=O)c2ccc(OCCCc3cccc(-c4ccc(F)cc4)c3)cc2)CC1` [Example 140] belongs under 5.00. Turning to `O=C(NO)C1(S(=O)(=O)c2ccc(OCCCc3cccc(-c4cccnc4)c3)cc2)CCOCC1` [Example 150], the pIC50 is under 5.00. With `COCCN1CCC(C(=O)NO)(S(=O)(=O)c2ccc(OCCCc3nc(-c4ccccc4OC(F)(F)F)no3)cc2)CC1` [Example 152], the pIC50 is under 5.00. As to `O=C(NO)C1(S(=O)(=O)c2ccc(OCCCc3cccc(Br)c3)cc2)CCOCC1` [Example 154], the pIC50 was under 5.00.

Regarding `CCc1ccccc1-c1noc(CCCOc2ccc(S(=O)(=O)C3(C(=O)NO)CCN(CCOC)CC3)cc2)n1` [Example 155], the negative logarithm of the IC50 (pIC50) is under 5.00. Regarding `O=C(NO)C1(S(=O)(=O)c2ccc(OCCOc3cccc(-c4ccccc4)c3)cc2)CCOCC1` [Example 157], the pIC50 is under 5.00. Take `CC(C)c1ccc(-c2cccc(CCCOc3ccc(S(=O)(=O)C4(C(=O)NO)CCOCC4)cc3)c2)cc1` [Example 160]: the pIC50 is under 5.00. Consider `O=C(NO)C1(S(=O)(=O)c2ccc(OCCCc3cccc(-c4cccc(F)c4)c3)cc2)CCOCC1` [Example 161], for which the pIC50 was under 5.00.

Consider `O=C(NO)C1(S(=O)(=O)c2ccc(OCCCc3cccc(-c4ccccc4F)c3)cc2)CCOCC1` [Example 163], for which the pIC50 was under 5.00. As for `COCCN1CCC(C(=O)NO)(S(=O)(=O)c2ccc(OCCCc3nc(-c4ccc(CC(C)C)cc4)no3)cc2)CC1` [Example 175], the pIC50 was under 5.00. In the case of `COCCN1CCC(C(=O)NO)(S(=O)(=O)c2ccc(OCCCc3nnc(-c4ccccc4C(F)(F)F)o3)cc2)CC1` [Example 178], the pIC50 was under 5.00. As for `O=C(CCCOc1ccc(S(=O)(=O)C2(C(=O)NO)CCOCC2)cc1)Nc1cccc(OC(F)(F)F)c1` [Example 181], the pIC50 is under 5.00. For the molecule `CC(C)c1cccc(NC(=O)CCCOc2ccc(S(=O)(=O)C3(C(=O)NO)CCOCC3)cc2)c1` [Example 182], the pIC50 was under 5.00.

With `COCCN1CCC(C(=O)NO)(S(=O)(=O)c2ccc(OCCCc3nc(-c4ccc(OC(F)(F)F)cc4)no3)cc2)CC1` [Example 190], the pIC50 is under 5.00. Consider `O=C(NO)C1(S(=O)(=O)c2ccc(OCCCc3ccnc(-c4ccccc4)c3)cc2)CCOCC1` [Example 197], for which the negative-log IC50 (pIC50) is under 5.00.

As for `O=C(CCCc1ccc(S(=O)(=O)C2(C(=O)NO)CCOCC2)cc1)c1cccc(-c2ccccc2)c1` [Example 219], the pIC50 was under 5.00. As for `O=C(CCCOc1ccc(S(=O)(=O)C2(C(=O)NO)CCOCC2)cc1)Nc1ccc(OC(F)(F)F)cc1` [Example 228], the pIC50 was 5.16. Regarding `Cc1cc(OC(F)(F)F)ccc1NC(=O)CCCOc1ccc(S(=O)(=O)C2(C(=O)NO)CCOCC2)cc1` [Example 229], the pIC50 was 5.30. On to `COc1ccc(/C(C#N)=C/CCCOc2ccc(S(=O)(=O)C3(C(=O)NO)CCN(C4CC4)CC3)cc2)cc1` [Example 233], for which the pIC50 was under 5.00. Same read-out and setting: to `CN(C(=O)CCCOc1ccc(S(=O)(=O)C2(C(=O)NO)CCOCC2)cc1)c1ccc(OC(F)(F)F)cc1` [Example 249] belongs under 5.00.

With `O=C(CCCOc1ccc(S(=O)(=O)C2(C(=O)NO)CCOCC2)cc1)Nc1ccc(OC(F)(F)F)cc1` [Example 250], the pIC50 is 5.36. Same read-out and setting: the value for `Cc1cc(NC(=O)CCCOc2ccc(S(=O)(=O)C3(C(=O)NO)CCOCC3)cc2)ccc1OC(C)C` [Example 290] was under 5.00.

One may read the pIC50 as the negative decadic logarithm of the IC50, by convention in mol/L.
